Data reported in ChEMBL document CHEMBL1201862, “PubChem BioAssay data set” (2004).
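Briefly, cells in 96-well plates were exposed to five compound concentrations for 48 h, and endpoints were estimated by linear interpolation. GI50 marks 50% less growth.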 Active and inactive are the calls of the source. No stated cut-off is given here; in the data, active = GI50 up to about 1.1 µM and inactive = higher.

How the values were obtained:
Assay in all cases: inhibition of tumour cell growth, NCI panel, 48 h
K562 = system: K562
TK-10 = system: TK-10
OVCAR-4 = system: OVCAR-4
SN12C = system: SN12C
NCI-H522 = system: NCI-H522
A498 = system: A498
KM12 = system: KM12
786-0 = system: 786-0
CAKI-1 = system: CAKI-1
SK-MEL-2 = system: SK-MEL-2
IGROV-1 = system: IGROV-1
MOLT-4 = system: MOLT-4
RXF 393 = system: RXF 393
MDA-MB-435 = system: MDA-MB-435
SF-295 = system: SF-295
MDA-N = system: MDA-N
OVCAR-3 = system: OVCAR-3
Hs-578T = system: Hs-578T
BT-549 = system: BT-549

Measured: GI50

CCOC(=O)c1c(-c2ccc(OC)cc2)c(C#N)c(=S)n(C2OC(CO)C(O)C(O)C2O)c1C (configuration not stated)
inactive: K562 > 100 µM | TK-10 > 100 µM | OVCAR-4 > 100 µM | SN12C > 100 µM | NCI-H522 > 100 µM | A498 > 100 µM | KM12 > 100 µM | 786-0 > 100 µM | CAKI-1 87.7 µM | SK-MEL-2 > 100 µM | IGROV-1 > 100 µM | MOLT-4 > 100 µM | RXF 393 > 100 µM | MDA-MB-435 > 100 µM | SF-295 > 100 µM | MDA-N > 100 µM | OVCAR-3 > 100 µM

O=c1[nH]nc(Cc2ccccc2)n1C1CCCC1
inactive: K562 > 100 µM | TK-10 > 100 µM | OVCAR-4 > 100 µM | SN12C > 100 µM | NCI-H522 > 100 µM | A498 > 100 µM | KM12 > 100 µM | 786-0 > 100 µM | CAKI-1 > 100 µM | Hs-578T > 100 µM | IGROV-1 > 100 µM | MOLT-4 > 100 µM | RXF 393 > 100 µM | MDA-MB-435 > 100 µM | SF-295 > 100 µM | MDA-N > 100 µM | OVCAR-3 > 100 µM

NN/C(=N\S(=O)(=O)c1cccc2nsnc12)Nc1ccc(Cl)cc1
inactive: BT-549 > 100 µM | K562 > 100 µM | TK-10 > 100 µM | OVCAR-4 > 100 µM | SN12C > 100 µM | A498 > 100 µM | KM12 > 100 µM | 786-0 > 100 µM | CAKI-1 > 100 µM | SK-MEL-2 > 100 µM | IGROV-1 > 100 µM | MOLT-4 61 µM | RXF 393 > 100 µM | SF-295 > 100 µM | MDA-N > 100 µM | OVCAR-3 > 100 µM

O=C(CSCC(=O)N/N=C/c1cc(I)cc(I)c1O)N/N=C/c1cc(I)cc(I)c1O
inactive: K562 11.1 µM | TK-10 7.4 µM | OVCAR-4 47 µM | SN12C 23.2 µM | NCI-H522 6.38 µM | A498 9.04 µM | KM12 25.8 µM | 786-0 5.83 µM | CAKI-1 18.3 µM | SK-MEL-2 23.7 µM | Hs-578T 6.78 µM | IGROV-1 8.28 µM | MOLT-4 5.19 µM | RXF 393 10.6 µM | MDA-MB-435 25.4 µM | SF-295 13.6 µM | OVCAR-3 27 µM

O=C(CC(C(=O)c1ccsc1)c1ccc2c(c1)OCO2)c1ccccc1 (configuration not stated)
inactive: K562 > 100 µM | TK-10 > 100 µM | OVCAR-4 > 100 µM | SN12C > 100 µM | NCI-H522 59 µM | A498 > 100 µM | KM12 > 100 µM | 786-0 > 100 µM | CAKI-1 > 100 µM | Hs-578T > 100 µM | IGROV-1 > 100 µM | MOLT-4 > 100 µM | RXF 393 > 100 µM | MDA-MB-435 > 100 µM | SF-295 > 100 µM | MDA-N > 100 µM | OVCAR-3 > 100 µM

O=CNNC(=O)Nc1ccc(Cl)cc1
inactive: K562 > 100 µM | TK-10 > 100 µM | OVCAR-4 > 100 µM | SN12C > 100 µM | A498 29.6 µM | KM12 > 100 µM | 786-0 > 100 µM | Hs-578T > 100 µM | IGROV-1 > 100 µM | MOLT-4 > 100 µM | RXF 393 > 100 µM | MDA-MB-435 > 100 µM | SF-295 33.7 µM

O=C1/C(=C/c2ccccc2)N=C2Sc3c([nH]cnc3=O)N12
inactive: K562 28.2 µM | TK-10 > 100 µM | OVCAR-4 35.1 µM | SN12C > 100 µM | NCI-H522 > 100 µM | A498 > 100 µM | KM12 > 100 µM | 786-0 > 100 µM | CAKI-1 > 100 µM | SK-MEL-2 > 100 µM | Hs-578T 73.1 µM | IGROV-1 > 100 µM | MOLT-4 44.3 µM | RXF 393 > 100 µM | MDA-MB-435 60 µM | SF-295 > 100 µM | OVCAR-3 > 100 µM

COc1ccc(-c2c(C#N)c(S)n(NS(=O)(=O)c3ccc(C)cc3)c(=O)c2C#N)cc1
inactive: BT-549 13.4 µM | K562 18.7 µM | TK-10 32.4 µM | OVCAR-4 23.7 µM | SN12C 17.2 µM | NCI-H522 14.8 µM | A498 30.5 µM | KM12 15.3 µM | 786-0 15.6 µM | CAKI-1 44.5 µM | SK-MEL-2 15.3 µM | IGROV-1 14.6 µM | MOLT-4 7.06 µM | RXF 393 17.5 µM | SF-295 30 µM | MDA-N 17.6 µM

CO/N=C\c1ccc2c(c1)Sc1ccccc1O2
inactive: K562 51.8 µM | TK-10 > 100 µM | OVCAR-4 43.9 µM | SN12C > 100 µM | A498 > 100 µM | KM12 42.3 µM | 786-0 69.5 µM | CAKI-1 > 100 µM | SK-MEL-2 35.1 µM | Hs-578T 30.9 µM | IGROV-1 62.4 µM | MOLT-4 54.7 µM | RXF 393 27.5 µM | MDA-MB-435 29.9 µM | SF-295 36.3 µM | MDA-N 47.2 µM | OVCAR-3 > 100 µM

C=CC1(O)CCCC=C1COCc1ccccc1 (configuration not stated)
inactive: K562 32.2 µM | TK-10 > 100 µM | OVCAR-4 38.4 µM | SN12C 70 µM | NCI-H522 16 µM | A498 > 100 µM | KM12 50.2 µM | 786-0 > 100 µM | CAKI-1 > 100 µM | SK-MEL-2 > 100 µM | Hs-578T > 100 µM | IGROV-1 16.6 µM | MOLT-4 23.4 µM | RXF 393 > 100 µM | MDA-MB-435 47.5 µM | SF-295 > 100 µM | MDA-N 73.8 µM

CN(C)c1cccc2c(S(=O)(=O)NCCN)cccc12 [DANSYL ETHYLENEDIAMINE]
inactive: K562 > 100 µM | OVCAR-4 > 100 µM | SN12C > 100 µM | NCI-H522 > 100 µM | A498 23 µM | KM12 > 100 µM | 786-0 > 100 µM | CAKI-1 > 100 µM | SK-MEL-2 > 100 µM | Hs-578T > 100 µM | IGROV-1 33.7 µM | MOLT-4 > 100 µM | RXF 393 41.1 µM | MDA-MB-435 > 100 µM | SF-295 > 100 µM | MDA-N > 100 µM | OVCAR-3 > 100 µM

CCCCCCCCCCCCCCCCCC(=O)OCC(COC(=O)CCCN)OC(=O)CCCN (configuration not stated)
inactive: K562 35.6 µM | TK-10 20.8 µM | OVCAR-4 22 µM | SN12C 17.8 µM | NCI-H522 21 µM | KM12 15.5 µM | 786-0 17.3 µM | CAKI-1 18.7 µM | Hs-578T 19.2 µM | IGROV-1 2.91 µM | MOLT-4 24.8 µM | RXF 393 15.1 µM | MDA-MB-435 17.2 µM | SF-295 19.4 µM | MDA-N 19.9 µM | OVCAR-3 19.3 µM
